We go through 1 compound from patent publication US12037411B2, “Antibodies, and bispecific antigen-binding molecules that bind HER2 and/or APLP2, conjugates, and uses thereof” (Regeneron Pharmaceuticals, Inc., priority 2018, dated 2024).

For assay [1], the system named is HER2 in T47D cells. Nature of the assay: HER2 turnover after cycloheximide treatment (western blot). The format is cell-based, human. The following applies: for Normalized HER2 expression: 50 ug/ml. As for the experimental part:
(§1) Additionally, the degradation rates of APLP2 and HER2 was tested on T47D cells. For the assay, T47D cells were plate at 10^6 cells/well in 6 well plates (Corning #3516). The cells were allowed to grow overnight at 37° C. in 5% CO2 in media consisting of RPMI 1640+10% FBS+1 mM sodium pyruvate+10 mM HEPES+10 ug/mL Insulin+5 mL Penicillin/Streptomycin/Glutamine. The following day, cells were treated with 50 ug/ml cycloheximide (Sigma #C4859-1ML) for 0, 0.5, 1.5, 2.5, 3.5, 4.5 and 5.5 hours. After the incubation, cells were washed once with 1 ml of DPBS/CM, and subsequently placed on ice and then the DPBS/CM was replaced with 800 uL of lysis buffer [1×RIPA (Boston Bioproducts, Cat #BP-116)+Protease inhibitor (Thermo Fisher, 1861280), cells were scraped and lysates were transferred to 1.5 ml Eppendorf tubes. Afterwards, the samples were sonicated with 25 pulses, 1 sec each at 50% power. Afterwards, the samples were frozen at −20° C. The samples were later thawed and 52 ul of each sample was mixed with 20 ul 4× Laemmli (Invitrogen, NP0007)+8 uL 10× Reducing agent (Invitrogen, Cat #NP0009)]. Samples were boiled at 95° C. for 10 minutes, centrifuged at 14000 RPM for 10 minutes at room temperature. 40 uL of each sample was loaded into three Wedged 4-20% TRIS-Glycine gels (Invitrogen, XPO4125BOX) and ran at 150V. The gels were then transferred into two PVDF membranes (ThermoFisher, IB24001) with iBlot2 dry blotting system (ThermoFisher, 1321001). The membranes were then blocked with 5% milk (BioRad, Cat #170-6404) in TBS for 3 hours at room temperature. Primary antibodies, rabbit-anti-HER2 antibody (Dako, Cat #A048529) or rabbit-anti-APLP2 antibody (abcam, Cat #ab140624) in 2.5% Milk+0.1% Tween (Sigma, Cat #P8074) in TRIS buffered saline (TBS; ThermoFisher, Cat #28376), were then added to the membranes and incubated at 4° C. overnight. The membranes were then washed 3 times with TBS for 5 minutes at room temperature. After, anti-rabbit-HRP antibodies (Promega, #W4011) and anti-actin-HRP antibody (Santa Cruz, Cat #sc-47779) in 2.5% Milk+0.1% Tween in TBS were added to the membranes and incubated at room temperature for 1 hour. The membranes were then washed 2 times with TBS+0.1% Tween at room temperature for 5 minutes, and then washed 2 more times with TBS room temperature for 5 minutes. The blot was then developed with ECL Detection Reagent (GE healthcare, Cat #RPN2106) and imaged with Azure C300 imager. Band quantification (mean fluorescence intensity minus background) was performed using ImageJ. Table 11 summarizes HER2, APLP, or T47D cells after cycloheximide (CHX) treatment normalized to cells having no CHX contact.
In general terms: A western blot detects proteins with antibodies after separation by electrophoresis.

Assay [2] relates to APLP2 in T47D cells. Nature of the assay: APLP2 turnover after cycloheximide treatment (western blot). The format is cell-based, human. The note with it: for Normalized APLP2 expression: 50 ug/ml. As for the experimental part: as §1

The structures appear in SMILES notation.

Turning to `C[C@@H]1C[C@@H]([C@H](O)CC2CC(=O)NC(=O)C2)C(=O)[C@@H](C)C1` [CHX, cycloheximide], the “Normalized HER2 expression” value is 57% in assay [1] (CHX treatment 0.5 hours); 78% in assay [1] (CHX treatment 1.5 hours); 68% in assay [1] (CHX treatment 2.5 hours); 64% in assay [1] (CHX treatment 3.5 hours); 88% in assay [1] (CHX treatment 4.5 hours); 78% in assay [1] (CHX treatment 5.5 hours). The compound further showed an HER2 degradation in assay [1] (after 5.5 hours) of 22%. The “Normalized APLP2 expression” value is reported as 41% in assay [2] (CHX treatment 0.5 hours); 22% in assay [2] (CHX treatment 1.5 hours); 9% in assay [2] (CHX treatment 2.5 hours); 7% in assay [2] (CHX treatment 3.5 hours); 8% in assay [2] (CHX treatment 4.5 hours); 6% in assay [2] (CHX treatment 5.5 hours). This compound gave an APLP2 degradation in assay [2] (after 5.5 hours) of 94%. In assay [2] (in 1.5 hours), the APLP2 degraded entry is reported as “Eighty-eight”.
